pKi: −log10 of the molar value.
molecular target: T1, Corticotropin-releasing factor receptor 1 (Homo sapiens, UniProt P34998); assay: Inhibition of [125I]CRF binding to human corticotropin releasing factor receptor 1
T1 sequence (P34998 whole entry): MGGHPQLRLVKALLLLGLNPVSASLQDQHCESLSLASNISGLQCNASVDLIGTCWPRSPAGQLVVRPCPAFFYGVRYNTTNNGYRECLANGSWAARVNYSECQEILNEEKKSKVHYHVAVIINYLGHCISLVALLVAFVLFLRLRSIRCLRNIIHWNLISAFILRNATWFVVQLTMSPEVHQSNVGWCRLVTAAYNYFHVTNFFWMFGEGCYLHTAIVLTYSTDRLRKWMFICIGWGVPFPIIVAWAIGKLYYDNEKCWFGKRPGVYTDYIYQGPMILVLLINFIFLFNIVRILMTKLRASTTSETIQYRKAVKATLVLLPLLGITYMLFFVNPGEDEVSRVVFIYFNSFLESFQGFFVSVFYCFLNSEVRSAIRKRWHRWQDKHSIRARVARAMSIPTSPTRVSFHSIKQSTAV

SMILES | pKi
CCCN(CC1CC1)c1nc(C)nc(Nc2ccc(OC)cc2OC)n1 | 5.10
Cc1nc(NCc2ccc(C(F)(F)F)cc2)nc(Nc2c(C)cccc2C)n1 | < 5.00
C=CCN(CC=C)c1nc(C)nc(Nc2c(C)cc(C)cc2C)n1 | 6.94
CCc1cccc(CC)c1Nc1nc(C)nc(NCc2ccc(C(F)(F)F)cc2)n1 | 4.26
CCCN(CC1CC1)c1nc(C)nc(Nc2c(C)cccc2C)n1 | < 5.00
CCCCN(CCCC)c1nc(C)nc(Nc2c(C)cc(C)cc2C)n1 | 6.31
CCCN(CC1CC1)c1nc(CC)nc(Nc2c(C)cc(C)cc2C)n1 | < 5.00
CCCN(CC1CC1)c1nc(C)nc(Nc2ccc(C)cc2C)n1 | < 5.00
C=CCN(CC=C)c1nc(C)nc(Nc2c(C)cccc2C)n1 | < 5.00
Cc1ccc(Nc2nc(C)nc(NCc3ccc(C(F)(F)F)cc3)n2)cc1 | < 5.00
CCCN(CCC)c1nc(C)nc(Nc2c(C)cc(C)cc2C)n1 | 6.89
CCCN(CC1CC1)c1nc(C)nc(Nc2c(CC)cccc2CC)n1 | < 5.00

Results, then the compound that gave them:

pKi | SMILES
5.77 | CCc1cccc(CC)c1Nc1nc(C)nc(N(CC)Cc2ccccc2)n1
< 5.00 | CCCN(Cc1ccccc1)c1nc(C)nc(Nc2c(CC)cccc2CC)n1
< 5.00 | CCCN(Cc1ccccc1)c1nc(C)nc(Nc2c(C)cccc2C)n1
< 5.00 | CCCN(Cc1ccccc1)c1nc(C)nc(Nc2ccc(C)cc2)n1
< 5.00 | CCN(Cc1ccccc1)c1nc(C)nc(Nc2ccc(C)cc2)n1
< 5.00 | C=CCN(CC=C)c1nc(C)nc(Nc2ccc(C)cc2)n1
< 5.00 | CCCN(CC1CC1)c1nc(C)nc(Nc2ccc(C)cc2)n1
6.31 | CCCN(Cc1ccccc1)c1nc(C)nc(Nc2c(C)cc(C)cc2C)n1
5.98 | CCCCN(Cc1ccccc1)c1nc(C)nc(Nc2c(C)cc(C)cc2C)n1
< 5.00 | CCN(Cc1ccccc1)c1nc(C)nc(Nc2c(C)cccc2C)n1
5.83 | CCN(Cc1ccccc1)c1nc(C)nc(Nc2c(C)cc(C)cc2C)n1
